According to paper PMC7024213, “Absolute Configuration of Mycosporine-Like Amino Acids, Their Wound Healing Properties and In Vitro Anti-Aging Effects” (Marine Drugs, 2019):
Counter-ions that a name gives are not always drawn. Like-named read-outs stand apart in the source and are kept apart here.

How the values were obtained:
pentosidine-like AGEs [1] = assay: Inhibition of advanced glycation end products (AGEs) formation, BSA/D-ribose fluorescence assay; format: biochemical; settings: for IC50: BSA 10 mg/mL, D-ribose 0.5 M, 37 °C, 24 h
Experimental: The anti-AGE assay was carried out following the methodology previously reported by Séro et al.. Briefly, the samples (1 µM to 3 mM) were incubated with D-ribose (0.5 M) and bovine serum albumin (BSA, 10 mg/mL) in a Na-phosphate buffer (50 mM pH 7.4); the solutions were incubated in black microtiter plates (96 wells) at 37 °C for 24 h in a closed system before AGE fluorescence measurement. Both vesperlysines-like (λexc370 nm; λem440 nm) and pentosidine-like (λexc335 nm; λem385 nm) AGE fluorescence were measured using a microplate spectrofluorometer Infinite M200 (Tecan, Lyon, France). To avoid quenching phenomena, the fluorescence resulting from the incubation in the same conditions of BSA (10 mg/mL) and the tested extract (1 µM to 3 mM) was subtracted from each measurement. The negative control, i.e., 100% inhibition of AGEs formation, consisted of wells with only BSA. A control, i.e., no inhibition of AGEs formation, consisted of wells with BSA (10 mg/mL) and D-ribose (0.5 M). The final volume assay was 100 µL. The percentage of AGE formation was calculated as follows for each extract concentration: AGEs (%) = (fluorescence intensity [sample]−fluorescence [blank of sample]/fluorescence intensity [control]−fluorescence [blank of control]) × 100.
Dose-effect curves were best fitted with a sigmoidal dose-response equation [four parameters logistic model: bottom and top plateaus, the EC50, and the slope factor (Hill’s slope)] using Sigma Plot 14.0 software, which enabled calculation of the IC50 values. The acceptance criteria were established by the correlation coefficient (r²) > 0.97. Results were compared with those of reference products, aminoguanidine and rutin.

pentosidine-like AGEs [2] = settings: cited from earlier work
collagenase type V [3] = assay: Collagenase inhibition assay (spectrofluorometric); format: biochemical; settings: for IC50: collagenase type V, MMP-2 fluorogenic substrate, 1% DMSO, 95% confidence interval in brackets, read-out: Collagenase Inhibition IC50 µM (CI 95 ±)
Experimental: The assay was carried out according to a previously published protocol by Hartmann et al.. All required reagents for the assay were purchased from Sigma Aldrich. Both enzyme (collagenase type V; C-9263) and substrate (SCP0192 MMP-2 substrate, Sigma Aldrich) were dissolved in the reagent buffer (Tris–HCl; 10 mM pH 7.3) and diluted from stock solutions to 100 μg/mL (initial) enzyme concentration and 55.55 μg/mL (initial) substrate concentration prior to use. Test samples and standard inhibitor phosphoramidon disodium salt used as positive control were dissolved in H2O/DMSO, always maintaining a final DMSO concentration of 1% in each well. The final reaction volume of 100 μL was composed of 25 μL buffer solution, and 25 μL sample/positive controls which were added first followed by 25 μL enzyme. This mixture was incubated for 10 min at 37 °C. Finally, 25 µL of substrate were added to initiate the readout reaction. The substrate which carries a fluorogenic residue (7-methoxycoumarin-4-yl acetic acid) is continuously dissipated by the enzyme collagenase. Measurements are taken after 30 min at an excitation wavelength of λ = 320 nm and λ = 400 nm emission wavelengths in a 96-well microplate format using an Infinite F 200 pro microplate reader equipped with filter-based technology (Tecan, Männedorf, Switzerland). An untreated control group containing 1% DMSO without sample was set to 100% enzyme activity. Blank wells without enzyme were measured accordingly and subtracted from the fluorescent units of each well. Two positive controls were used. First, the well-established phosphoramidon disodium salt and second, to include natural product based inhibitors, rutin and EGCG were used. Measurements were performed in triplicates using 96 well plates, and each substance was measured in three independent experiments. […] IC50 values were calculated by fitting data (log (Inhibitor) vs. response–variable slope) using GraphPad Prism (GraphPad Software, San Diego, CA, USA).
Statistics: The data were analyzed at least in three independent experiments and were expressed as mean ± SEM. A Shapiro Wilk normality test was performed to confirm the Gaussian distribution of the data. One-way ANOVA, followed by a Dunett’s multiple comparison test in GraphpadPrism 5 were performed to clarify statistical significance. p-Value of ≤ 0.05 was considered statistically significant.

collagenase = settings: cited from earlier work
[4] = tested on: hen egg white lysozyme (HEWL); settings: read-out: Inhibition of glycation-dependent cross-linking of HEWL, IC50; literature finding, reference not given; cited from earlier work
HaCaT keratinocytes = assay: Wound scratch assay; format: cell-based, human; settings: 1 µM and 10 µM, after 24 h, p < 0.05 vs untreated control
Experimental: HaCaT keratinocytes were provided by Prof. Dr. Norbert E. Fusenig (DKFZ, Heidelberg, Germany) and cultivated in a DMEM medium, supplemented with FCS (10%), penicillin/streptomycin solution (1%), and non-essential amino acids (1%) (PAA, Pasching, Austria). HaCaT keratinocytes were cultivated at 37 °C, 5% CO2.
The evaluation of 4 different MAAs (compounds 1, 2, 4, and 8) on the migration of HaCaT cells was determined as described by Balekar et al.. HaCaT cells were plated into a 12-well plate at a concentration of 1 × 10^5 cells containing Dulbecco’s modified Eagle’s medium culture medium (DMEM) supplemented with 10% fetal calf serum (FCS) and incubated at 37 °C in a humidified 5% CO2 atmosphere until confluence has been reached. After attachment of the cells to the plate, medium was removed and the adherent cell layer was scratched with a sterile pipette tip. Cellular debris was removed by washing off with PBS (2 × 1 mL). Subsequently, the cells were treated with DMEM supplemented with 10% FCS containing the individual MAA test compounds at the concentrations of (10 µM to 1 µM). Control cells received only fresh DMEM +10% FCS, cells used as the positive control were treated with fresh DMEM + 20% FCS. Following, the cell cultures were incubated at […] in a humidified 5% CO2 atmosphere. Finally, the area of each scratch was determined by quantitative imaging at time 0 (just after scratching cell monolayers) and after 24 h treatment with the compounds (Leica DFC300, Wetzlar Germany; 40× magnification). The captured images were then analyzed using Image J software.
The migration rate can be expressed as the percentage of area reduction or wound closure:(2) Wound closure %=100 [Area (t0)−Area( t24)/Area (t0)]
Statistical analysis: The data were analyzed in three independent experiments and were expressed as mean ± SEM. One-way ANOVA, followed by an unpaired t-test to compare control group and treated group was performed. P-value of ≤ 0.05 was considered as statistically significant.

collagenase type V [5] = molecular target: collagenase type V; design: method as in Hartmann et al. [18]; settings: collagenase results previously published; 95% confidence interval in brackets; ref Hartmann et al. [18]; read-out: Collagenase Inhibition IC50 µM (CI 95 ±); cited from earlier work
[6] = tested on: UV-A induced MMPs such as MMP-1 and elastase; design: method as in Ryu et al. [20]; settings: concentrations at 40 µM; ref Ryu et al. [20]; cited from earlier work
[7] = concentration range 1 to 350 µM
[8] = read-out: Collagenase inhibition IC50

IC50 (pentosidine-like AGEs [1])	IC50 (collagenase type V [3])	SMILES	further results
		O=c1c(O)c(-c2ccc(O)c(O)c2)oc2cc(O)cc(O)c12 [quercetin]	AGEs inhibition (pentosidine-like AGEs [2]): strong AGEs inhibitor
	1.9 µM	CC(C)C[C@H](NP(=O)(O)O[C@@H]1O[C@@H](C)[C@H](O)[C@@H](O)[C@H]1O)C(=O)N[C@@H](Cc1c[nH]c2ccccc12)C(=O)O [Phosphoramidon, phosphoramidon disodium salt, reference compound]	
200 µM	90 µM	COC1=C(NCCC(=O)O)C[C@@](O)(CO)CC1=N[C@H](C(=O)O)[C@@H](C)O [Compound 12, bostrychine-F]	
		COC1=C(NCC(=O)O)CC(O)(CO)CC1=NCCO (stereo not drawn) [asterina-330]	Collagenase inhibition (collagenase type V [3]; [7]): good inhibition
		OC[C@H]1O[C@@H](Oc2cc(O)cc(/C=C/c3ccc(O)c(O)c3)c2)[C@H](O)[C@@H](O)[C@@H]1O [E-astringin]	IC50 (collagenase; [8]): 125 µM
		COC1=C(NCC(=O)O)CC(O)(CO)CC1=NCC(=O)O (stereo not drawn) [mycosporine-2-glycine]	IC50 [4]: 1.61 mM
85 µM		C[C@@H]1O[C@@H](OC[C@H]2O[C@@H](Oc3c(-c4ccc(O)c(O)c4)oc4cc(O)cc(O)c4c3=O)[C@H](O)[C@@H](O)[C@@H]2O)[C@H](O)[C@H](O)[C@H]1O [Rutin, reference compound]	Collagenase inhibition (collagenase type V [3]; at 100 µM, 1% DMSO control group set to 100% enzyme activity): 100 µM -> 52% Inhibition *
150 µM	250 µM	CNC1=C(OC)C(=N[C@H](C(=O)O)[C@@H](C)O)C[C@](O)(CO)C1 [Compound 3, mycosporine-methylamine-threonine]	
		COC1=C(NCC(=O)O)C[C@@](O)(CO)CC1=O [mycosporine-glycine]	Collagenase inhibition (collagenase type V [3]; [7]): very pronounced inhibition
	104 µM	COC1=C(N[C@H](C(=O)O)[C@@H](C)O)C[C@](O)(CO)CC1=N[C@@H](CCC(N)=O)C(=O)O [Compound 8, bostrychine-B]	Migration / wound closure in scratch assay (words) (HaCaT keratinocytes): significant migration and narrowing of the scratch area; Migration / wound closure in scratch assay (words) (HaCaT keratinocytes; listed as bostrychine B): slightly higher wound closure ability
		COC1=C(NCC(C)O)C[C@](O)(CO)CC1=NCC(=O)O (stereo partly drawn) [aplysiapalythine A]	Collagenase inhibition (collagenase type V [3]; [7]): good inhibition
		COC1=C(NCC(=O)O)CC(O)(CO)CC1=N (stereo not drawn) [palythine]	Anti-AGEs activity (pentosidine-like AGEs [1]; concentration range 1 µM to 3 mM): weakest effect
85 µM	118 µM	COC1=C(N[C@H](C(=O)O)[C@@H](C)O)C[C@](O)(CO)CC1=N[C@@H](CCC(=O)O)C(=O)O [Compound 10, bostrychine-D]	
75 µM	158 µM	COC1=C(N[C@@H](C)C(=O)O)C[C@](O)(CO)CC1=NCC(=O)O [Compound 4, mycosporine-alanine-glycine]	Migration / wound closure in scratch assay (words) (HaCaT keratinocytes): significant migration and narrowing of the scratch area
400 µM	80.7 µM	COC1=C(NC[C@@H](C)O)C[C@](O)(CO)CC1=NCC(=O)O [Compound 5, aplysiapalythine A]	
		O=C1c2c(O)cc(O)cc2OC(c2ccc(O)c(O)c2)C1O (stereo not drawn) [taxifolin]	IC50 (collagenase; [8]): 193 µM
		OC[C@H]1O[C@@H](Oc2cc(O)cc(/C=C/c3ccc(O)cc3)c2)[C@H](O)[C@@H](O)[C@@H]1O [E-piceid]	IC50 (collagenase; [8]): 259 µM
125 µM	70.9 µM	COC1=C(NCCO)C[C@](O)(CO)CC1=NCC(=O)O [Compound 6, asterina-330]	
90 µM		COC1=C(N[C@H](C(=O)O)[C@@H](C)O)C[C@](O)(CO)CC1=NCC(=O)O [Compound 2, porphyra-334]	Migration / wound closure in scratch assay (words) (HaCaT keratinocytes): significant migration and narrowing of the scratch area; IC50 (collagenase type V [5]): 106 µM; Inhibition of UV-A induced MMPs such as MMP-1 and elastase [6]: concentration-dependent inhibition; Procollagen production [6]: increase in procollagen production
150 µM	163 µM	COC1=C(NC[C@@H](C)O)C[C@@](O)(CO)CC1=N[C@@H](CCC(=O)O)C(=O)O [Compound 11, bostrychine-E]	
		O=C1c2c(O)cc(O)cc2O[C@H](c2ccc(O)c(OC3O[C@H](CO)[C@@H](O)[C@H](O)[C@H]3O)c2)[C@H]1O (stereo partly drawn) [taxifolin 3′-O-glucopyranoside]	IC50 (collagenase; [8]): 141 µM
103 µM		COC1=C(N[C@@H](CO)C(=O)O)C[C@](O)(CO)CC1=NCC(=O)O [Compound 1, Shinorine]	Migration / wound closure in scratch assay (words) (HaCaT keratinocytes): significant migration and narrowing of the scratch area; IC50 (collagenase type V [5]): 104 µM

SMILES	IC50 (pentosidine-like AGEs [1])	IC50 (collagenase type V [3])	further results
N=C(N)NN [Aminoguanidine, reference compound]	1400 µM		
O=C(O[C@@H]1Cc2c(O)cc(O)cc2O[C@@H]1c1cc(O)c(O)c(O)c1)c1cc(O)c(O)c(O)c1 [Epigallocatechingalleate, reference compound]		46.6 µM	IC50 (collagenase; used as positive control in many publications, read-out: Collagenase inhibition IC50 (published values)): ~220 µM
